Test results taken from BindingDB's records for doi:10.1021/jm9508853 (University of Maryland, 2021).

What was measured:
[1] = biological target: Casein kinase II subunit alpha 3 (Homo sapiens, UniProt Q8NEV1); assay: Inhibition of CK2 (unknown origin)
[2] = biological target: T1, B-cell lymphoma 6 protein (Homo sapiens, UniProt P41182); assay: Reversible inhibition of human BCL6 BTP domain measured by TR-FRET assay
[3] = biological target: T1, B-cell lymphoma 6 protein; assay: Inhibition of human BCL6 BTP domain measured by TR-FRET assay
[4] = biological target: T1, B-cell lymphoma 6 protein; assay: Inhibition of human BCL6 BTP domain by ELISA assay
[5] = biological target: T1, B-cell lymphoma 6 protein; assay: Inhibition of human BCL6 BTP domain measured by fluorescence polarization assay
[6] = biological target: T1, B-cell lymphoma 6 protein; assay: Irreversible inhibition of human BCL6 BTP domain measured by TR-FRET assay
[7] = biological target: T1, B-cell lymphoma 6 protein; assay: Binding affinity to human BCL6 BTP domain assessed as dissociation constant by SPR assay
[8] = biological target: T1, B-cell lymphoma 6 protein; assay: Inhibition of human BCL6 BTP domain measured by cell reporter assay
[9] = biological target: T1, B-cell lymphoma 6 protein; assay: Inhibition of human BCL6 BTP domain

Sequence of Casein kinase II subunit alpha 3 (Q8NEV1 whole entry, the tested form may be a part): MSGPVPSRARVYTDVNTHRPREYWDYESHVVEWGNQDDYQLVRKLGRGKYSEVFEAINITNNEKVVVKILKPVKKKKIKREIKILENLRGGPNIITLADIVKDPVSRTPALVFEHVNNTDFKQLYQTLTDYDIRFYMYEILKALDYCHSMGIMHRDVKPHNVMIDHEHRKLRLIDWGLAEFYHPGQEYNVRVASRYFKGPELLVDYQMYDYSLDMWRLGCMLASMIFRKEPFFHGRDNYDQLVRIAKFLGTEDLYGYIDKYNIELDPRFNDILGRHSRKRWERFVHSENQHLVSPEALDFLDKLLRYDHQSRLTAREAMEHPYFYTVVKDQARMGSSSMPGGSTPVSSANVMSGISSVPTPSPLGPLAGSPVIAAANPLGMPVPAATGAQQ

COc1cccc(CN2C(=O)CCc3cc4cc(c32)OC/C=C/CO[C@H]2C[C@@H](CO)N(C2)c2cc(n3ncc(Cl)c3n2)N4)c1
IC50 [1]: > 10 µM

CNC(=O)COc1cc2cc(Nc3nc(NCc4cccc(S(C)(=O)=O)c4)ncc3Cl)cc(OC)c2n(C)c1=O
IC50 [2]: 0.368 µM

Cn1c(=O)n(CCC(C)(C)O)c2cc(Nc3ccnc(Cl)c3C#N)ccc21
IC50 [3]: 0.86 µM

CSCC[C@H](N)C(=O)N[C@@H](CO)C(=O)N[C@@H](Cc1c[nH]c2ccccc12)C(=O)N[C@@H](CCCNC(=N)N)C(=O)N[C@H](C(=O)N1CCC[C@H]1C(=O)O)C(C)C
IC50 [4]: 620 µM

N#Cc1c(NCC2CC2)ccnc1Cl
IC50 [5]: 207 µM

Cn1c(=O)n(C)c2cc(Nc3cc(SCc4ccccc4)ncn3)ccc21
IC50 [5]: 70 µM

CNC(=O)COc1cc2cc(Nc3nc(NCc4cccc(S(=O)(=O)F)c4)ncc3Cl)cc(OC)c2n(C)c1=O
IC50 [6]: 0.152 µM

CCNc1cc(-c2cccnc2)nc2ccnn12
Kd [7]: 690 µM

N#Cc1cnn2c3cc(nc12)N1C[C@H](C[C@H]1CO)OC/C=C/COc1cc(cc2c1NC(=O)CC2)N3
IC50 [1]: 0.64 µM | IC50 [3]: 0.0029 µM | Kd [7]: 0.0065 µM | IC50 [8]: 2 µM

Cn1c(=O)n(C)c2cc(Nc3ncccc3C#N)ccc21
IC50 [5]: 86 µM

CC(=O)N[C@@H](Cc1c[nH]c2ccccc12)C(=O)N[C@@H](CCCNC(=N)N)C(=O)N[C@H](C(=O)N1CCC[C@H]1C(=O)O)C(C)C
IC50 [4]: 170 µM

Nc1ncc(Cl)c(Nc2ccccc2)n1
Kd [7]: 68 µM

N#Cc1cnn2c(Nc3ccc4c(c3)CCC(=O)N4)cc(N3CCC[C@H]3CO)nc12
IC50 [3]: 0.37 µM | Kd [7]: 0.5 µM

Cc1cc(C)n(-c2ncc(Cl)c(Nc3ccc(Cl)cc3)n2)n1
IC50 [9]: > 20 µM

N#Cc1c(NCc2ccccc2)ccnc1Cl
IC50 [5]: 120 µM

Nc1ncnc(Nc2ccccc2)n1 [Amanozine]
Kd [7]: 1200 µM

CC(C)[C@H](NC(=O)[C@H](CCCNC(=N)N)NC(=O)[C@H](Cc1c[nH]c2ccccc12)NC(=O)[C@@H](N)CO)C(=O)N1CCC[C@H]1C(=O)O
IC50 [4]: 1500 µM

N#Cc1cnn2c(Nc3ccc4c(c3)CCC(=O)N4)cc(N3CCC[C@H]3CC(=O)O)nc12
IC50 [3]: 0.35 µM | Kd [7]: 1.1 µM

CNC(=O)COc1cc2cc(Nc3nc(-n4nc(C)cc4C)ncc3Cl)ccc2n(C)c1=O
IC50 [9]: 0.012 µM

O=C1Cc2cc(Nc3nc(NCc4cccc(S(=O)(=O)F)c4)ncc3Cl)ccc2N1
IC50 [6]: 0.251 µM

O=C1CCc2cc3cc(c2N1Cc1ccccc1)OC/C=C/CO[C@H]1C[C@@H](CO)N(C1)c1cc(n2ncc(Cl)c2n1)N3
IC50 [1]: > 10 µM

CN(c1ncccc1CNc1nc(Nc2ccc3c(c2)CC(=O)N3)ncc1C(F)(F)F)S(C)(=O)=O
Kd [7]: 88 µM

Nc1ncnc(Nc2ccccc2Cl)n1
IC50 [3]: 830 µM

Cc1ccccc1CN1C(=O)CCc2cc3cc(c21)OC/C=C/CO[C@H]1C[C@@H](CO)N(C1)c1cc(n2ncc(Cl)c2n1)N3
IC50 [1]: > 10 µM
